Where two headings read alike, the source gives them in different places.
Columns and labels:
KMT9 [1] = molecular target: T1, KMT9 (Homo sapiens, UniProt Q9Y5N5); design: method as in previous study; conditions: compound 2d taken as a reference from the previous study; ref previous study; cited from earlier work
T1 sequence (Q9Y5N5 1-214): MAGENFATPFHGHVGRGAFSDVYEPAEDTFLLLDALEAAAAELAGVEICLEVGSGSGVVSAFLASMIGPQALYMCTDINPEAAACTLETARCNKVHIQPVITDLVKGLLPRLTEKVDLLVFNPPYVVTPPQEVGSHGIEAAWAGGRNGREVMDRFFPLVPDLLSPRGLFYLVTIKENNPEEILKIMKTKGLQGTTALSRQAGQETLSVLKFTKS
T1 sequence (Q9UI30 1-125 partner): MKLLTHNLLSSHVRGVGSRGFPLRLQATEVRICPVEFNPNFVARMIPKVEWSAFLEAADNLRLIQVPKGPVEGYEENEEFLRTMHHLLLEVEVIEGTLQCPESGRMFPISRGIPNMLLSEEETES

KMT9 [2] = molecular target: T1, KMT9; design: method as in previous study; conditions: compound 2d taken as a reference from the previous study; ref previous study; cited from earlier work; remark: listed apart in the source
KMT9 [3] = molecular target: T1, KMT9; assay: Microscale thermophoresis (MST) binding assay; conditions: for Kd: MST, binding to KMT9, read-out: Kd
Procedure: To determine the binding affinity of the compound and KMT9, microscale thermophoresis (MST) analysis was performed with a NanoTemper Monolith NT.115 instrument (NanoTemper Technologies GmbH). KMT9 was labeled with a RED-Tris-NTA labeling kit (NanoTemper Technologies GmbH) based on the manufacturer’s instructions. Buffer including 25 mM HEPES (pH 7.5), 100 mM NaCl, 1 mM DTT and 0.05% Tween was used for the reaction buffer. Varying concentrations of compounds were titrated against His-tag labeled KMT9 proteins (20 nM). Samples were loaded into standard Capillaries (NanoTemper Technologies GmbH) and MST measurements were performed using 40% MST power and 100% LED power. For each set of binding experiments, MST measurement was carried out with Binding Affinity module in MO. Control program under Nano-RED excitation. Data sets were processed with the MO.Affinity Analysis software (NanoTemper Technologies GmbH).

KMT9 [4] = molecular target: T1, KMT9; design: method as in previous study; conditions: compound 2d taken as a reference from the previous study; ref previous study; cited from earlier work; remark: listed apart in the source
KMT9 [5] = molecular target: T1, KMT9; assay: KMT9 methyltransferase inhibition assay (3H-SAM, ETF1 substrate)
Procedure: The assay was carried out in 0.5 mL Eppendorf tubes in duplicates. Assay buffer consisted of 50 mM BTP, 1 mM MgCl2, 1 mM DTT and 0,01% Triton-X100 at a pH of 8.5 (adjusted using 1 M HCl and 1 M NaOH). 20X inhibitor stock (in DMSO), 2× enzyme stock and 4× substrate mix (both in assay buffer) were prepared. The substrate mix consisted of Tritium-labeled S-adenosylmethionine (3H-SAM), S-adenosylmethionine (SAM) and eukaryotic peptide chain release factor subunit1 (, residues 140–275) (ETF1). Final assay concentrations were set to 25 nM KMT9, 0.3 μM 3H-SAM, 0.7 μM SAM and 5 μM ETF1. […] Five μL of 4× substrate mix was added to initiate the reaction. The final reaction volume was 20 μL. For the positive control, the compound was replaced by DMSO; for the negative control, the compound was replaced by DMSO and KMT9 was replaced by assay buffer. The reaction mix was incubated in an Eppendorf thermomixer comfort at 30 °C for 2 h, shaking at 300 rpm. The reaction was quenched using 5 μL 50% trichloroacetic acid (TCA) and incubated at 25 °C for 5 min. Twenty-two μL of the mixture was transferred into 96-well MultiScreenHTS FB filter plates (Merck KGaA, Darmstadt, Germany) and washed four times with 10% TCA and two times with 100% ethanol. The plate was dried overnight, the filters were transferred into individual 6 mL Pony Vials (PerkinElmer Inc., Waltham, MA, USA) and incubated in 3 mL of Ultima Gold scintillation cocktail (PerkinElmer Inc., Waltham, MA, USA) for 30 min. The scintillation signal was measured for 3× 1 min using TriCarb 2910 TR (PerkinElmer) scintillation counter in 3H CPM mode (LL: 0, UL: 18.6).
Inhibition was calculated using the following formula: Inhibition[%]=(1−xc−xpos/xpos−xneg)×100
With xc: signal of compound, xpos: mean signal of positive control, xneg: mean signal of negative control. Data fitting was carried out by GraphPad 7.0 using nonlinear fit ([Inhibitor] vs response – variable slope (four parameters)).

endogenous KMT9a [6] = molecular target: T2, endogenous KMT9a (Homo sapiens, UniProt Q9Y5N5); assay: CETSA in SW480 cell lysate, KMT9; assay type: binding; conditions: 2 h, vs DMSO
T2 construct: increased thermal stability of endogenous KMT9 in SW480 cell lysates; endogenous in cells; host or cells: SW480
T2 sequence (Q9Y5N5 1-214): T1 sequence (Q9Y5N5 1-214)
T2 sequence (Q9UI30 1-125 partner): T1 sequence (Q9UI30 1-125 partner)
Procedure: (§1) For whole cell CETSA, the cells were incubated with 10/15 μM of compound 7b/8/8-N for 18 h. Then, cells were washed with cell culture medium, detached from the surface using trypsin, washed with PBS and the number of cells was determined. Cell concentration was adjusted to 3.6 × 10^7 cells/mL using in PBS with Complete (w/o EDTA, Roche) protease inhibitor. Then, cells were frozen in liquid nitrogen and thawed at 25 °C three times, before being divided in 16 aliquots. Each aliquot was heated to a defined temperature between 40 and 70 °C in a PCR cycler (16 well gradient, 55 °C ± 15). After 3 min incubation, aliquots were snap frozen in liquid nitrogen and thawed at 25 °C. Cell lysates were then centrifuged at 20,000 × g , 4 °C for 20 min. Supernatant were mixed with 5× loading buffer, heated to 70 °C for 5 min and analyzed by Western blotting essentially as previously described. For the CETSA performed with cell lysates, cells were directly harvested and lysed as described above. The lysates were then split and incubated either with DMSO or 10 μM compound 7b for 2 h. Then, lysates were aliquoted again into 16 samples each and treated as described for the whole cell CETSA.

endogenous KMT9a [7] = molecular target: T2, endogenous KMT9a; assay: CETSA in intact SW480 cells, KMT9; assay type: cell-based; conditions: 18 h, vs DMSO
Procedure: as §1

KMT9 [8] = molecular target: T1, KMT9; assay: Thermal shift assay (SyproOrange); assay type: binding; conditions: thermal shift, 2 μM KMT9, 500 μM compound; read-out: ΔTm
Procedure: The assay was carried out in 96-well Hard-Shell PCR plates (Bio-Rad Laboratories Inc.). […] Final assay concentrations were set to 500 μM of compound 8, 2 μM KMT9 and 5× SO. One μL of 20× compound, 4 μL of assay buffer, 10 μL of 2× KMT9 and 5 μL of 4× SO were pipetted. For the no-compound control, 20× inhibitor stock was replaced by DMSO. The final volume was 20 μL. The plate was spun down at 700 rpm for 1 min using a Hettich UNIVERSAL 320 centrifuge and incubated at 25 °C, shaking at 600 rpm. After incubation, the plate was spun down for 1 min at 700 rpm and measurement was conducted using a CFX96 Touch Real-Time PCR Detection System (Bio-Rad Laboratories Inc.). The plate was equilibrated at 20 °C for 4 min and then heated stepwise at a rate of 1 °C per 15 s until 95 °C. After every step, fluorescence was measured in FRET mode. Calculation of melting points was conducted by a Boltzman sigmoidal model using GraphPad Prism 7.0.

KMT5A = molecular target: T3, KMT5A (Homo sapiens, UniProt Q9NQR1); assay: CETSA in SW480 cell lysate, KMT5A (negative control); assay type: binding; design: endogenous in cells; host or cells: SW480; conditions: negative control protein
T3 sequence (Q9NQR1 1-393): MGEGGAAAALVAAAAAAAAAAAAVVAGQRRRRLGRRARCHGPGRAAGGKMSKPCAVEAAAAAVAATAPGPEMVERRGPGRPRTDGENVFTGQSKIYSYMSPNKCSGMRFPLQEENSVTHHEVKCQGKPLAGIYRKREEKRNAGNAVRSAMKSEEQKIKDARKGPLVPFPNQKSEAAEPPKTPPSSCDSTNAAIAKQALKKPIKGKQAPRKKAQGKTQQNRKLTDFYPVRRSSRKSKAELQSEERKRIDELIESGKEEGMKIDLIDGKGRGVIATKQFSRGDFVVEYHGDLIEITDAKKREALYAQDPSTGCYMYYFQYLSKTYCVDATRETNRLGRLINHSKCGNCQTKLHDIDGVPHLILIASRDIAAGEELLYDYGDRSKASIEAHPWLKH
Procedure: as §1, with “The lysates were then split and incubated either with DMSO or 10 μM compound 7b for 2 h. Then, lysates were aliquoted again into 16 samples each and treated as described for the whole cell CETSA.” left out
(§2) Figure S4. […] Representative Western blots (A) and quantification (B) showing no obvious shifting melting temperatures (ΔT m) of endogenous KMT5A upon treatment with compound 7b compared to DMSO. […]
(§3) Representative Western blots (C) and quantification (D) showing no shifting melting temperatures (ΔT m) of endogenous KMT5A upon treatment with compound 8 compared to DMSO. […]

[9] = system: panel of 27 SET domain-containing and 14 Rossmann-fold methyltransferases; assay: Selectivity assay, radiometric methyltransferase panel; assay type: biochemical; conditions: IC50 panel, 3H-labeled SAM
Procedure: Selectivity profile of compound 6 was evaluated by testing the IC50 in a panel of methyltransferases. The IC50 of a panel of SET-domain containing and Rossmann-fold methyltransferases was assessed in a radiometric assay measuring substrate methylation using ^3H-labeled SAM by RBC Corp by compound 6. Data was process and plotted using KNIME Analytic Platform from KNIME AG.

[10] = system: H4K12me1 levels in PC-3 M prostate tumor cells; assay: Western blot of cellular H4K12me1 levels; assay type: cell-based; conditions: PC-3 M cells, 10 μM, 3 days
Procedure: 7 Cellular activity of prodrug compound 8. (A) Levels of H4K12me1 in PC-3 M prostate tumor cells cultured in the presence of DMSO (−), 10 μM compound 8 or compound 8-N for 3 days were analyzed by Western blot using the indicated antibodies. Histone H4 was used as control. (B, C) Proliferation of Caco-2 cells treated with DMSO (Ctrl), compound 8, or compound 8-N were measured by Xcelligence. Data represent means ± s.d (n = 3). (D) Proliferation of HepG2 cells upon treatment of DMSO (Ctrl) and compound 8.
Experiments were performed as previously described. Histones used for Western blot analysis were extracted from cells as following: Cells were harvested, washed with PBS, resuspended in Triton Extraction Buffer (TEB; PBS, Triton ×100, 2 mM PMSF, 0.02% NaN3), stored 10 min on ice, centrifuged, and supernatant was discarded. After washing cells, a second time with TEB, pellets were resuspended in 0.2 N HCl and histones were acid-extracted overnight at 4 °C. Upon centrifugation for 10 min at 2000 rpm, supernatant was collected and protein concentration was determined. Three days before harvesting, cells were transfected with siRNA as indicated. The following antibodies were used: anti-KMT9α (#27630, lot 20062017, Schüle Lab), antihistone H4 (#ab10158, lot GR322677–1, Abcam), anti-H4K12me1 (#27429, lot 27062017, Schüle Lab).

Caco-2 cells = assay: Cell proliferation assay (X-Celligence), Caco-2; assay type: cell-based; conditions: Xcelligence, vs DMSO
Procedure: Cell proliferation was determined using the X-Celligence RTCA system (Roche). For real-time recording of SW480, Caco-2 cell proliferation, 5000 cells/well were seeded in 16 well E-plates (Roche). […] Cell indices were automatically recorded every 15 min. Relative velocities represent the change of the cell index over time. The sequences of the siRNAs (Stealth RNAi siRNAs; Life Technologies) used in the experiments have been previously described.

KMT9a = molecular target: T4, KMT9a (Homo sapiens, UniProt Q9Y5N5); assay: CETSA in Caco-2 cells, KMT9; assay type: cell-based; design: of endogenous KMT9 upon treatment with; endogenous in cells; host or cells: Caco-2; conditions: 15 μM
T4 sequence (Q9Y5N5 1-214): T1 sequence (Q9Y5N5 1-214)
T4 sequence (Q9UI30 1-125 partner): T1 sequence (Q9UI30 1-125 partner)
Procedure: as §1, with “The lysates were then split and incubated either with DMSO or 10 μM compound 7b for 2 h. Then, lysates were aliquoted again into 16 samples each and treated as described for the whole cell CETSA.” left out
as §2, §3

In the case of NCCCN(CC[C@H](N)C(=O)O)C[C@H]1O[C@@H](n2cnc3c(N)ncnc32)[C@H](O)[C@@H]1O [compound 2d, (S)-2-Amino-4-((((2R,3S,4R,5R)-5-(6-amino-9H-purin-9-yl)-3,4-dihydroxytetrahydrofuran-2-yl)methyl)(3-aminopropyl)amino)butanoic acid], the ΔTm (KMT9 [1]) is given as “ΔTm= 18.12 K”, the IC50 (KMT9 [2]) is given as 29 nM and the “Increase of binding compared to compound 1” value (KMT9 [3]; Kd ratio vs compound 1) is given as “about 1000 fold”. For the same compound, the Kd (KMT9 [4]) was 10 nM.

For CNc1ncnc2c1ccn2[C@@H]1C[C@H](CN(CCCNCCc2ccc(Oc3ccc(Cl)cc3)c(F)c2)CC[C@H](N)C(=O)O)[C@@H](O)[C@H]1O [compound 7b, (s)-2-Amino-4-((3-((4-(4-chlorophenoxy)-3-fluorophenethyl)amino)propyl) (((1R,2R,3S,4R)-2,3-dihydroxy-4-(4-(methylamino)-7H-pyrrolo[2,3-d]pyrimidin-7-yl)cyclopentyl)methyl)amino)butanoic Acid], the IC50 (KMT9 [5]) was 160 nM, the ΔTm at 10 µM (endogenous KMT9a [6]) was 10.9 °C and the ΔTm at 10 µM (endogenous KMT9a [7]) was 1.8 °C. The ΔTm at 500 µM (KMT9 [8]) was 19.7 °C, the ΔTm at 10 µM (KMT5A) was 1.1 °C and the Kd (KMT9 [3]; given in nM) was 12 nM. The Kd (KMT9 [3]) was 10 nM.

For CNc1ncnc2c1ccn2[C@@H]1C[C@H](CN(CCCNCCc2ccccc2)CC[C@H](N)C(=O)O)[C@@H](O)[C@H]1O [compound 6, (S)-2-Amino-4-((((1R,2R,3S,4R)-2,3-dihydroxy-4-(4-(methylamino)-7H-pyrrolo[2,3-d]pyrimidin-7-yl)cyclopentyl)methyl)(3-(phenethylamino)propyl)amino)butanoic acid], the “Selectivity against SET-domain containing and Rossmann-fold MTs” value [9] was “selective for KMT9 against other MTs” and the Kd (KMT9 [3]; given in nM) was 30 nM.

For “Ethyl (S)-2-amino-4-((3-(4-(4-chlorophenoxy)-3-fluorophenethoxy)propyl) (((1R,2R,3S,4R)-2,3-dihydroxy-4-(4-(methylamino)-7H-pyrrolo[2,3-d]pyrimidin-7-yl)cyclopentyl)methyl)amino)butanoate [compound 8-N]”, the “Levels of H4K12me1” value [10] was “no effect was observed”, the “Proliferation of Caco-2 cells” value (Caco-2 cells) was “fails to do so” and the “ΔTm of KMT9 (CETSA)” value (KMT9a) was 0.1 K. The “ΔTm of endogenous KMT9 (CETSA)” value (endogenous KMT9a [7]; 10 μM) was −0.6 K.

Source: publication PMC12257510, “Structure-Guided Design of a KMT9 Inhibitor Prodrug with Cellular Activity” (Journal of Medicinal Chemistry, 2025)
